PubChem BioAssay AID1963825 (Molecular Pharmacology Branch, DTP, NCI, 2024)
Several values for one entry are separate records, joined by “and”; a condition that tells them apart may be missing. Identical values can stand only once.

Test: Anticancer human tumor 997537-175-T-J1-PDC patient-derived colon adenocarcinoma cell line growth inhibition [POLQ]
Conditions: 997537-175-T-J1-PDC complex spheroid viability, combination with POLQ inhibitors; for viability, T/C: stronger effect = lower value
Protocol: Multicellular complex tumor spheroid response to Polymerase (POL) inhibitors (novobiocin, ART-558, RP6685) in combination with a variety of drugs and investigational agents in selected tumor cell lines
The POL inhibitors (novobiocin, ART-558, and RP6685) were evaluated both individually and in combination with standard of care and investigational anticancer small molecules within a complex spheroid model of solid tumors. . Complex spheroids include a stromal component modeled by human endothelial cells (HUVEC) and fibroblasts modeled by human mesenchymal stem cells (MSCs). The concentration ranges selected for each drug and investigational agent were based upon clinically achievable concentrations if the clinical Cmax of the agent was known.
Compounds. The drugs and investigational agents: novobiocin (NSC847541), ART-558 (NSC835418), RP-6685 (NSC848927), peposertib (NSC802822), ceralasertib (NSC780249), elimusertib (NSC800525), camonsertib (NSC841442), AZD-1390 (NSC803789), olaparib (NSC753686), talazoparib (NSC767125), rucaparib (NSC756644), sotorasib (NSC818433), MRTX-1133 (NSC836407), SN-38 (NSC673596), topotecan (NSC609699), epotoside (NSC141540), doxorubicin (NSC123127), gemcitabine (NSC613327), 5-fluorouracil (NSC19893), paclitaxel (NSC125973), vemurafenib (NSC761431), MSA-2 (NSC828583), SN-011 (NSC837082), adavosertib (NSC754352), prexasertib (NSC758257), carboplatin (NSC241240) and oxaliplatin (NSC266046), were obtained from the National Cancer Institute (NCI) Developmental Therapeutics Program Chemical Repository (21). The FDA-approved anticancer drug set is available from the Developmental Therapeutics Program at https://dtp.cancer.gov/organization/dscb/obtaining/. […] The stock solutions were prepared in dimethyl sulfoxide (DMSO, Sigma-Aldrich, St. Louis, MO, cat. D2650), except for the platinum compounds which were prepared in saline (Quality Biological, Gaithersburg, MD, cat. 114-055-101), at 800-fold the tested concentration and stored at -70 degrees C prior to their use. All drugs and investigational agents were tested over a range starting from a high concentration at or near the clinical Cmax and decreasing in half-log increments. If the clinical Cmax for an agent had not been determined, the highest concentration tested was 10 microM, except for SN-38, which was tested at a high concentration of 1 microM.
Cell Culture. All cells were maintained in an incubator at 37 degrees C and 5% CO2 with 95% humidity. The PDC lines were cultured according to standard operating procedures established by the NCI PDMR (https://pdmr.cancer.gov). Table 3 of the manuscript, lists the cell lines along with the number of the three cell types plated to form the mct-spheroids and media for tumor cell growth. After thawing, all PDC lines, except 997537-175-T-J1-PDC and 415267-285-R-J2-PDC, were cultured in Matrigel-coated flasks prepared with a working solution of 1X Ham's F-12 nutrient mix, without supplementation (Thermo Fisher Scientific, cat. 11765054), 100 U/mL penicillin-streptomycin (Thermo Fisher Scientific, cat. 15140122), and 2.5% Matrigel (Corning Inc., Corning, NY, cat. 354248) for the first three passages. The two PDC lines 997537-175-T-J1-PDC and 415267-285-R-J2-PDC were cultured on uncoated flasks. The 857933-349-R-J2-PDC line was cultured in 6C/Colon 1B media containing advanced DMEM/F-12 (Thermo Fisher Scientific, cat. 12634028), 10 mM HEPES (Thermo Fisher Scientific, cat. 15630080), 1X GlutaMAX supplement (Thermo Fisher Scientific, cat. 35050061), 0.1 mg/mL primocin (InvivoGen, San Diego, CA, cat. ant-pm-2), 10% defined fetal bovine serum, heat inactivated (HyClone Laboratories Inc., Logan, UT, cat. SH30070.03HI), 50% L-WRN conditioned media (ATCC, cat. CRL-3276), 1.25 mM N-Acetyl-L-cysteine (Sigma-Aldrich, cat. A9165), 10 mM nicotinamide (Sigma-Aldrich, cat. N0636), 1X B-27 supplement (Thermo Fisher Scientific, cat. 17504044), 1X N-2 supplement (Thermo Fisher Scientific, cat. […]
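Note: luminescence signal used as a surrogate for viable cells; spheroids exposed to drugs for seven days before readout.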

Row | SMILES | viability, T/C (compound 0.1 µM) | viability, T/C (compound 0.316 µM) | viability, T/C (compound 1 µM) | IC50 (compound alone, run of 11/27/2023) [nM] | viability, T/C (compound 0.0316 µM) | viability, T/C (compound 3.16 µM) | viability, T/C (compound 10 µM) | IC50 (curve of compound) | viability, T/C (compound 0.00949 µM) | viability, T/C (compound 0.03 µM) | viability, T/C (compound 0.0949 µM) | viability, T/C (compound 0.3 µM) | viability, T/C (compound 0.949 µM) | viability, T/C (compound 3 µM)
1 | COC1C(OC(N)=O)C(O)C(Oc2ccc3c(O)c(NC(=O)c4ccc(O)c(CC=C(C)C)c4)c(=O)oc3c2C)OC1(C)C (stereo unspecified) | 97.2% [middle of 13 runs] | 97.4% [middle of 13 runs] | 95.6% [middle of 13 runs] | > 10000 |  |  |  |  |  |  |  |  |  | 
2 | CC(C)n1c(=O)n(C)c2cnc3cc(F)c(-c4ccc(OCCCN5CCCCC5)nc4)cc3c21 | 103% and 96% and 38.9% | 100% and 83.5% and 34.2% | 97.9% and 102% and 32.9% |  | 90.1% and 93% and 37.9% | 85.7% and 92.1% and 37.8% | 73.3% and 87.2% and 43.2% |  |  |  |  |  |  | 
3 | C=CC(=O)N1CCN(c2nc(=O)n(-c3c(C)ccnc3C(C)C)c3nc(-c4c(O)cccc4F)c(F)cc23)C(C)C1 (stereo unspecified) | 92.3% and 93.2% and 91.2% | 92.7% and 102% and 101% | 99.6% and 91.8% and 112% |  | 88.3% and 103% and 94.8% | 103% (2×) and 104% | 101% and 89.6% and 87.3% | > 10000 nM |  |  |  |  |  | 
4 | CC(=O)O[C@H]1C(=O)[C@@]2(C)[C@H]([C@H](OC(=O)c3ccccc3)[C@]3(O)C[C@H](OC(=O)[C@H](O)[C@@H](NC(=O)c4ccccc4)c4ccccc4)C(C)=C1C3(C)C)[C@]1(OC(C)=O)CO[C@@H]1C[C@@H]2O |  |  |  |  |  |  |  | 12.5 nM and 20.7 nM and < 9.49 nM | 55.5% and 66.9% and 49.9% | 33.4% and 42.3% and 41.3% | 22.8% and 35.5% and 38.7% | 32.1% and 41.2% and 22.7% | 32% and 28.6% and 22% | 30.9% and 40.5% and 33.2%
5 | Nc1ccn(C2OC(CO)C(O)C2(F)F)c(=O)n1 (stereo unspecified) | 93.9% and 111% and 97.5% | 85.7% and 84.1% and 75% | 69.6% and 75.9% and 84.9% |  | 104% (2×) and 98.4% | 80.9% and 85.4% and 87.5% | 85% and 80% and 70.2% | > 10000 nM |  |  |  |  |  | 
